Test results taken from article PMC11830721 (Frontiers in Pharmacology, 2025).

What was measured:
NB4 cells = test: MTT assay, NB4 (FLT3 wild-type); format: cell-based; conditions: 2–64 μM
Excerpt: The human AML cell line MV4-11, which bears exclusive FLT3-ITD mutation genes, was purchased from the American Type Culture Collection (ATCC, Manassas, VA, United States), and the AML cell line NB4, a FLT3-wildtype cell line, was obtained from the China Center for Type Culture Collection (CCTCC, Wuhan, China). In addition, the normal hematopoietic cell line was COLO 829BL from ATCC. The cells were maintained in RPMI-1640 medium supplemented with 10% FBS, and 1% penicillin and streptomycin. The cells were cultured in an incubator at 37°C with 5% CO2. […] The high-performance liquid chromatography (HPLC) spectra data for each compound are provided in the (Supplementary Figures S1–S6). The FLT3-ITD mutant protein was purchased from Abcam (Cambridge, United Kingdom).
(§1) The effects of the test compounds on MV4-11, NB4, and COLO 829BL cell lines were quantitatively evaluated according to the methods previously reported ([Zhou et al., 2022]).
Subsequently, to further validate the specificity of FLIN-4 for cells expressing FLT3-ITD, we conducted MTT assays to assess the specificity and cytotoxicity of FLIN-4 within the concentration range of 2–64 μM on NB4 cells (harboring FLT3 wild-type) and COLO 829BL cells (representing normal hematopoietic cells). […]

FLT3-ITD [1] = target: T1, FLT3-ITD (Homo sapiens, UniProt P36888, ITD); test: Microscale thermophoresis (MST) binding affinity; conditions: 50 mM Tris, 230 mM NaCl, pH 7.0, labeled protein 50 nM
T1 sequence (P36888 27-993): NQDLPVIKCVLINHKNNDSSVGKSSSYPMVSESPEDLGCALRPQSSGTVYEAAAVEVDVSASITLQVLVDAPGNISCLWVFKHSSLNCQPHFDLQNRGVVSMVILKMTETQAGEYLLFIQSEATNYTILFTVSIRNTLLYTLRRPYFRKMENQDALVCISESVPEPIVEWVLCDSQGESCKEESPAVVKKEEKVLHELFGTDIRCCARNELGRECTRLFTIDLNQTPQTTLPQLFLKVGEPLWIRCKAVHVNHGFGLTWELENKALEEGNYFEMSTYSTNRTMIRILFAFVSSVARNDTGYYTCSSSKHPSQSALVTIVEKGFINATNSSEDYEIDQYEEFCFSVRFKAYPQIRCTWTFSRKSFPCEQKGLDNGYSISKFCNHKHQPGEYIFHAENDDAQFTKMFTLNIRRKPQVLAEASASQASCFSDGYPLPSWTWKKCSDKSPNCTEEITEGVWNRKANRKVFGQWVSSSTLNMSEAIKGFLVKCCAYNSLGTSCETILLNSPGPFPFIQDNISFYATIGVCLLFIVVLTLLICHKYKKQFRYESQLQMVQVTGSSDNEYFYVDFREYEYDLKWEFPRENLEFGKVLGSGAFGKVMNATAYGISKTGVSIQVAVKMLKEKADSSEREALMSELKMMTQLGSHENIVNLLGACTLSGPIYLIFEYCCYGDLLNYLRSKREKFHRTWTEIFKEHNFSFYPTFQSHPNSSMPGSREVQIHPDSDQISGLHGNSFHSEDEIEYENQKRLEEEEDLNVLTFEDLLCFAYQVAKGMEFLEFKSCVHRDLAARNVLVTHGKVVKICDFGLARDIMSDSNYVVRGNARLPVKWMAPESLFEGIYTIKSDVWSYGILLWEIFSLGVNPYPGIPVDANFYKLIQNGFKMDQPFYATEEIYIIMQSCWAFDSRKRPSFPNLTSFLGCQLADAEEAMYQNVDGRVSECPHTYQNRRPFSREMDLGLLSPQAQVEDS
Experimental: The protein was labeled with a fluorescence tag utilizing a Lys Labeling Kit (NanoTemper), with a final concentration of 50 nM being achieved. Adhering to the manufacturer’s guidelines, the compounds were titrated from an initial concentration of 12.5 μM with a 1:1 dilution ratio. Next, each sample was centrifuged at 15,000 rpm for 5 min, followed by loading into standard glass capillaries for MST analysis.

FLT3-ITD [2] = target: T1, FLT3-ITD; test: ADP-Glo kinase-inhibition assay; format: biochemical; conditions: ADP-Glo; ATP 100 μM; FLT3-ITD 10 ng/μL
Experimental: (§2) Subsequently, the kinase detection reagent was added and incubated for an additional 15 min. Finally, the mixture was incubated for 1 h, and relative luminescence units (RLU) were measured.
(§3) Moreover, we extended the kinase selectivity profiling of FLIN-4 to evaluate its inhibitory activity against 60 non-target kinases.

FLT3-ITD [3] = test: ADP-Glo kinase-inhibition assay; format: biochemical; conditions: ratio of IC50 values vs Midostaurin
Experimental: as §2, §3

MV4-11 cells = test: MTT anti-proliferation assay, MV4-11; format: cell-based; conditions: Homo sapiens, 72-h treatment
Experimental: In addition, the normal hematopoietic cell line was COLO 829BL from ATCC. The cells were maintained in RPMI-1640 medium supplemented with 10% FBS, and 1% penicillin and streptomycin. The cells were cultured in an incubator at 37°C with 5% CO2. […] The high-performance liquid chromatography (HPLC) spectra data for each compound are provided in the (Supplementary Figures S1–S6).
as §1

**Q.** For CCc1nc(C(N)=O)c(Nc2ccc(N3CCC(Nc4ccccc4)CC3)c(OC)c2)nc1NC1CCOC(C(O)CO)C1 (centres unmarked) [FLIN-4], which “Survival rate of NB4 cells” value (NB4 cells) is on record?
**A.** did not induce any significant changes in the survival rates

**Q.** What about the Kd (FLT3-ITD [1]) of the same molecule?
**A.** 0.95 ± 0.06 nM

**Q.** And the IC50 (FLT3-ITD [2])?
**A.** 1.07 ± 0.04 nM

**Q.** And the “FLT3-ITD inhibitory potency relative to Midostaurin” value (FLT3-ITD [3])?
**A.** approximately 27 times

**Q.** What about the IC50 (MV4-11 cells) of the same molecule?
**A.** 1.31 ± 0.06 nM
